This is an account of results in patent US20110191867A1.

In this assay the test system is serum antibodies of test subjects.

Regarding “Biotin-aminocaproyl-CRSKVNGQCG-NH4 [Peptide 2C]”, the serum reactions result is given as “Strongest reactivities”.
